Like-named read-outs stand apart in the source and are kept apart here.
Experiments:
NHEK cells = assay: Inhibition of DNA synthesis and proliferation of normal human epidermal keratinocytes (NHEK); type: cell-based; conditions: EGF-stimulated NHEK, BrdU incorporation, read-out: Supp. DNA Synt. NHEK IC50
Description: NHEK cells (primary cells from person) were purchased from PromoCell. For these assay the adherent cells were cultured in serum-free Keratinocyte Growth medium 2 supplemented with epidermal growth factor (EGF) and bovine pituitary extract for 48 hours in flat-bottom microtiter plates. EGF stimulates the DNA synthesis and proliferation of these cells. Test items were added in concentrations from 0.1 up to 100 μM.
The DNA synthesis was assessed by incorporation of bromdesoxyuridine (BrdU) and subsequent detection of BrdU by ELISA technique. Based on these raw data the relative proliferation response in relation to cells cultured in the absence of test compound (100% control) was calculated. IC50 values of proliferation suppression were assessed by computer-assisted graphical evaluation.

[1] = molecular target: T1, purified, recombinant human DPIV (Homo sapiens, UniProt P27487); assay: Inhibition of enzymatic activity of DPIV (fluorogenic substrate hydrolysis); type: biochemical; conditions: highest test item concentration 25 μM; for IC50: read-out: meas. IC50 (DPIV)
T1 construct: made in house; host or cells: Sf9 insect cells
T1 sequence (P27487 whole entry): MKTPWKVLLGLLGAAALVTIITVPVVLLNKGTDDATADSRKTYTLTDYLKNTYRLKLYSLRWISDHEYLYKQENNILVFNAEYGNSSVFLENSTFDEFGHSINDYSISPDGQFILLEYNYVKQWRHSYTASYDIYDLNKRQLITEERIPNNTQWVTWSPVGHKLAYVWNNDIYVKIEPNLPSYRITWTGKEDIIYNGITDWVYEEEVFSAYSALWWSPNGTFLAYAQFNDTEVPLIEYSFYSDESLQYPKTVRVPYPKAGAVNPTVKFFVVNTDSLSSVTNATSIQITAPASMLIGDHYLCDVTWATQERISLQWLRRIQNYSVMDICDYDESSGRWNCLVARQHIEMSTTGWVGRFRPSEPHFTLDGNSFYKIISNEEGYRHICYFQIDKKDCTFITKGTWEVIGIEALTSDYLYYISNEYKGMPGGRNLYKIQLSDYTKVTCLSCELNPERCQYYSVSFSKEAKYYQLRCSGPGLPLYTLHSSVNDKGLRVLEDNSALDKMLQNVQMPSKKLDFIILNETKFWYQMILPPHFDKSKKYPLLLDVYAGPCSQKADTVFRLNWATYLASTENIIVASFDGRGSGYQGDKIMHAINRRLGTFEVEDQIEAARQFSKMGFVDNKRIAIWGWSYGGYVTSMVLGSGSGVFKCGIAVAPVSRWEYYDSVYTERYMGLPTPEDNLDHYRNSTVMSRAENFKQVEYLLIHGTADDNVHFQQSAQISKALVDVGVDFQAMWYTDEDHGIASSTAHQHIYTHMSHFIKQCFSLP
Description: (§1) The inhibition of the enzymatic activity of DPIV and related enzymes was measured by using purified, recombinant human DPIV (purified from transfected Sf9 cells, final enzyme concentration approx. 1 nM) as well as purified, recombinant DP8 and DP9 (purchased from Biomol). The assay was performed in 0.05M TRIS/HCl puffer pH 7.5, supplemented with 0.05% Triton (v/v), 0.05% BSA (w/v), 2 mM MgCl2.
(§2) The enzymatic activity of DPIV was assessed by the hydrolysis of the fluorogenic substrates H-Gly-Pro-4-amino-7-methyl coumarine (abbreviation of fluorogenic group AMC; purchased from Bachem) or (Ala-Pro)2-Rhodamine 110 (abbreviation R110). The final substrate concentrations were 50 μM or 1 μM, respectively.
(§3) The assay was performed in white microtitre plates for fluorescence measurements. The test items, substrate and enzyme were diluted in assay buffer. The highest test item concentration used was 25 μM. For the calculation of IC50 values, at least 16 log 2-dilutions of each test item were analyzed. As controls, the DPIV activity in the absence of test items as well as the spontaneous hydrolysis of the substrate was determined.
(§4) The release of the fluorescent hydrolysis product AMC was measured at an excitation wavelength of 380 nm and an emission wavelength of 460 nm by using a microtitre fluorescence reader immediately after substrate addition as well as after 30, 60 and 120 min. The hydrolysis of the substrate (Ala-Pro)2-Rhodamine 110 was determined at an exitation wavelength of 488 nm and emission wavelength of 530 nm.

[2] = molecular target: T2, aminopeptidase N (APN), purified recombinant human enzyme (Homo sapiens, UniProt P15144); assay: Inhibition of enzymatic activity of aminopeptidase N (fluorogenic substrate hydrolysis); type: biochemical; conditions: highest test item concentration 25 μM; for IC50: read-out: meas. IC50 (APN)
T2 construct: made in house; host or cells: ECV cells (transfected)
T2 sequence (P15144 whole entry): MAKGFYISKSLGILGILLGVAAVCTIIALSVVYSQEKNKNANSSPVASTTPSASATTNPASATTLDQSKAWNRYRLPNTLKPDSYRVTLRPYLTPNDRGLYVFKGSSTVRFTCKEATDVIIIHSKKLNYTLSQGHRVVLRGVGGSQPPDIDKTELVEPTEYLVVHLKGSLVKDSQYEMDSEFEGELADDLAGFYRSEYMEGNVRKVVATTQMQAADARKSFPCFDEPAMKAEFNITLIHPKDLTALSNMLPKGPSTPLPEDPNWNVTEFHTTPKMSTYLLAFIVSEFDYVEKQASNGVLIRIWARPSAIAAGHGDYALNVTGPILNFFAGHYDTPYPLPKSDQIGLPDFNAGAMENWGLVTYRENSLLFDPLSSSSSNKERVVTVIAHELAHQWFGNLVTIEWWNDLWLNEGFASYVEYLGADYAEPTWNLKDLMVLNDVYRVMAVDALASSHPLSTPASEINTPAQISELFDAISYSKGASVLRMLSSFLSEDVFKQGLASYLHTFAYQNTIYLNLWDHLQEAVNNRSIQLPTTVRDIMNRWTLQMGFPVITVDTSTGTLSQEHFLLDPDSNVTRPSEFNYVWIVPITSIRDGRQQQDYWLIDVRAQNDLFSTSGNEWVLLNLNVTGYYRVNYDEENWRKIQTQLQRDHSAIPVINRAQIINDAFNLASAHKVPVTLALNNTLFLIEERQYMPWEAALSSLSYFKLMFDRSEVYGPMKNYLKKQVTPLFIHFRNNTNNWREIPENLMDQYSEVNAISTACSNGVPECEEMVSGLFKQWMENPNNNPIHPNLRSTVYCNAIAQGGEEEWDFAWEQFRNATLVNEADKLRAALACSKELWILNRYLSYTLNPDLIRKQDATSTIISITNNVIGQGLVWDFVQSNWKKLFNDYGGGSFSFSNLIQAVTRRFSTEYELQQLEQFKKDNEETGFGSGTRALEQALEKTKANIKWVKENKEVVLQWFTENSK
Description: The inhibition of the enzymatic activity of aminopeptidase N (APN) was measured by using purified, recombinant human enzyme (purified from transfected ECV cells, final enzyme concentration approx. 1 nM). […] The assay was performed in 0.05M TRIS/HCl puffer pH 7.5, supplemented with 0.05% Triton (v/v), 0.05% BSA (w/v), 2 mM MgCl2.
The aminopeptidase acitivities wer assessed by the hydrolysis of the fluorogenic substrates H-Ala-4-amino-7-methyl coumarine (abbreviation of fluorogenic group AMC; purchased from Bachem) or (Ala-)2-Rhodamine 110 (abbreviation R110). The final substrate concentrations were again 50 and 1 μM, respectively.
as §3
The release of the fluorescent hydrolysis products AMC and R110 was measured as described above for DPIV substrates.

[3] = molecular target: T3, cytosolic aminopeptidase (cAAP) purified from Jurkat cells (Homo sapiens, UniProt P55786); assay: Inhibition of enzymatic activity of cytosolic aminopeptidase (cAAP); type: biochemical; conditions: highest test item concentration 25 μM; for IC50: read-out: meas. IC50 (cAAP)
T3 construct: The cytosolic aminopeptidase (cAAP) was purified from Jurkat cells; endogenous in cells; host or cells: Jurkat cells (enzyme purified from them)
T3 sequence (P55786 whole entry): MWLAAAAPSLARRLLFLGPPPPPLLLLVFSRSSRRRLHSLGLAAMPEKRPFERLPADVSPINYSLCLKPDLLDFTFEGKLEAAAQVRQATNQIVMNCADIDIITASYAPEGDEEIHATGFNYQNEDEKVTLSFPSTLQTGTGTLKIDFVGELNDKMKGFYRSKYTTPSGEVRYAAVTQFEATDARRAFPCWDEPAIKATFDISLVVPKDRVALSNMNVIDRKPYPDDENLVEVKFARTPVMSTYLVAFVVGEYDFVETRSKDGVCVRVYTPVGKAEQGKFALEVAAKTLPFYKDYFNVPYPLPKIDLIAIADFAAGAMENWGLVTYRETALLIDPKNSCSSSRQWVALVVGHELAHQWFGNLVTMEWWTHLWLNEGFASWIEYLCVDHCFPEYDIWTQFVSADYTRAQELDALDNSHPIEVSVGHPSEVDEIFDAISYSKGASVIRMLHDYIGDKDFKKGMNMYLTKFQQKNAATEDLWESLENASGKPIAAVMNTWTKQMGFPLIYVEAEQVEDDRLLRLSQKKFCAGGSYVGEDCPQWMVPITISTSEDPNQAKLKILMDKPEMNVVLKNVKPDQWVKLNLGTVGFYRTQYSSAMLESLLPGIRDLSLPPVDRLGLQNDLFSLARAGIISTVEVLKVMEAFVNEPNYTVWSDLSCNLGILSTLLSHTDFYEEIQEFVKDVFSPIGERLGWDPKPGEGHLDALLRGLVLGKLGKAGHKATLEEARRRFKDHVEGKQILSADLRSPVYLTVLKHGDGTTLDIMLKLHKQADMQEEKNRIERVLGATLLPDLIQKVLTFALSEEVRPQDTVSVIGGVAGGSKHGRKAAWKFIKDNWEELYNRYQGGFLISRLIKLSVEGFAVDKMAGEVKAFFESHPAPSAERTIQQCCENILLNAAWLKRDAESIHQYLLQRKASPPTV

[4] = system: purified, recombinant DP8 and DP9; assay: Inhibition of enzymatic activity of DP8/9; type: biochemical; conditions: highest test item concentration 25 μM; for IC50: read-out: meas. IC50 (DP8/9)
Description: as §1, §2, §3, §4

T lymphocytes (T cells) = assay: Suppression of DNA synthesis of PHA-stimulated T lymphocytes; type: cell-based; conditions: tritium thymidine incorporation, read-out: Supp. DNA Synt. T-cell IC50
Description: Peripheral blood mononuclear cells (PBMC) from healthy human volunteers were freshly isolated by density gradient centrifugation. T lymphocytes (T cells) were isolated from PBMC fractions via nylon wool adherence. Both cell populations were cultured in serum free lymphocyte medium (AIMV medium, Invitrogen) and stimulated by addition of 1 μg/ml Phytohemagglutinine for 48 hours in 96 well flat-bottom microtiter plates. Test compounds were added at concentration ranges from 0.1 up to 250 μM over the total assay period.
DNA synthesis of proliferating PBMC was assessed by incorporation of nucleotide analogue bromdesoxyuridine (BrdU) and subsequent detection of BrdU by ELISA technique (Cell Proliferation Biotrak™ ELISA system, GE Health Care) according to the protocol of the manufacturer. DNA synthesis of proliferating T cells was determined by incorporation of radio labelled tritium thymidine and subsequent radio detection.
Data output was based on raw data and calculation of relative proliferation response in relation to PHA-activated T cells in the absence of test compound (100% control). The IC50 value of proliferation suppression was assessed by graphical evaluation.

SZ95 cells = assay: Inhibition of DNA synthesis and proliferation of immortalized human sebocytes SZ95; type: cell-based; conditions: EGF-stimulated SZ95 sebocytes, tritium thymidine incorporation, read-out: Supp. DNA Synt. SZ95 IC50
Description: The immortalized human sebocyte line SZ95 was provided by Prof. C Zouboulis [C C Zouboulis, H Seltmann, H Neitzel, C E Orfanos, Establishment and characterization of an immortalized human sebaceous gland cell line (SZ95). J. Invest. Dermatol. 113(6):1011-1020 (1999), the entire disclosure of which is incorporated by reference herein]. These adherent growing cells were cultured in serum-free Sebomed Complete (Biochrom). Recombinant EGF was added in order to stimulate DNA synthesis and proliferation of the SZ95 cells. Test items were added in concentrations from 0.1 up to 100 μM.
The DNA synthesis of proliferating cells was detected by incorporation of radiolabelled tritium thymidine (3HT) and counting at a beta counter. Based on these raw data the relative proliferation response in relation to cells cultured in the absence of test compound (100% control) was calculated. IC50 values of proliferation suppression were assessed by computer-assisted graphical evaluation.

SMILES | IC50 (NHEK cells; 48 hours) [µM] | meas. IC50 (DPIV) [1] | meas. IC50 (APN) [2] | meas. IC50 (cAAP) [3] | meas. IC50 (DP8/9) [4] | IC50 (T lymphocytes (T cells); Homo sapiens, T-cell, 48 h) [µM] | IC50 (SZ95 cells; Homo sapiens) [µM] | IC50 (NHEK cells; Homo sapiens, NHEK, 48 h) [µM] | IC50 [3] [µM] | IC50 (T lymphocytes (T cells); PHA-stimulated human T cells, 48 hours) [µM] | IC50 (SZ95 cells) [µM] | IC50 [1] [µM] | IC50 [2] [µM] | IC50 [4] [µM]
CC(C)(CNC(=O)CC(Cc1cc(F)ccc1F)NC(=O)OC(C)(C)C)CNC(=O)C(O)C(COCc1ccccc1)NC(=O)OC(C)(C)C (stereo not drawn) [Compound C19.023] | 41 | No in- hibition | no in- hibition | no in- hibition | no in- hibition | 11.5 | 15.9 | – | – | – | – | – | – | –
CCCCCC(=O)NC(CC(=O)NCC(C)(C)CNC(=O)C(O)C(COCc1ccccc1)NC(=O)CCCCC)Cc1cc(F)ccc1F (stereo not drawn) [Compound C19.012] | – | no in- hibition | no in- hibition | – | no in- hibition | 12.2 | 28.6 | 17.5 | 0.51 | – | – | – | – | –
COc1ccc(COCC(NC(=O)OC(C)(C)C)C(O)C(=O)NCC(C)(C)CNC(=O)CC(Cc2cc(F)ccc2F)NC(=O)OC(C)(C)C)cc1 (stereo not drawn) [Compound C19.006] | – | no in- hibition | no in- hibition | – | no in- hibition | 6.2 | 18.5 | 24.1 | 10.2 | – | – | – | – | –
CCCCCC(=O)NC(CC(=O)NCC(C)(C)CNC(=O)C(O)C(COCc1ccc(OC)cc1)NC(=O)CCCCC)Cc1cc(F)ccc1F (stereo not drawn) [Compound C19.013] | – | no in- hibition | no in- hibition | no in- hibition | no in- hibition | 6.5 | 17.4 | 15.3 | – | – | – | – | – | –
CC(=O)SC(C(=O)NCCCCC(NC(=O)OC(C)(C)C)C(=O)N1CCSC1)C(Cc1ccccc1)NC(=O)OC(C)(C)C (stereo not drawn) [Compound C22.001] | – | no in- hibition | no in- hibition | – | no in- hibition | 136 | 57.1 | ≥ 200 | 0.57 | – | – | – | – | –
CCCCCCCC(=O)OC(C(=O)NCC(C)(C)CNC(=O)CC(Cc1cc(F)ccc1F)NC(=O)OC(C)(C)C)C(COCc1ccc(OC)cc1)NC(=O)OC(C)(C)C (stereo not drawn) [Compound C19.007] | – | no in- hibition | no in- hibition | no in- hibition | no in- hibition | 78.6 | 56.8 | ≥ 120 | – | – | – | – | – | –
CC(C)(C)OC(=O)NC(CCCCNC(=O)c1cccc(NC(=O)C(O)C(Cc2ccccc2)NC(=O)OC(C)(C)C)c1)C(=O)N1CCSC1 (stereo not drawn) [Compound C21.004] | – | no in- hibition | no in- hibition | no in- hibition | no in- hibition | 12 | 19.4 | 13.9 | – | – | – | – | – | –
CC(C)(CNC(=O)CC(Cc1cc(F)ccc1F)NC(=O)OC(C)(C)C)CNC(=O)C(O)C(COCc1ccccc1)NC(=O)OC(C)(C)C (stereo not drawn) [Compound C19.025] | 17.3 | No in- hibition | no in- hibition | no in- hibition | no in- hibition | – | – | – | – | 12.3 | 15.4 | – | – | –
CC(C)(C)OC(=O)NC(CCCCNC(=O)C(O)C(Cc1ccccc1)NC(=O)OC(C)(C)C)C(=O)N1CCSC1 (stereo not drawn) [Compound C21.002] | – | no in- hibition | no in- hibition | no in- hibition | no in- hibition | 55.1 | 61.6 | 49.3 | – | – | – | – | – | –
CC(C)NC(CC(=O)NCC(C)(C)CNC(=O)C(O)C(N)COCc1ccccc1)Cc1cc(F)ccc1F (stereo not drawn) [Compound C19.029] | – | – | – | – | – | 29.4 | 92.7 | 34.8 | 0.33 | – | – | 14.5 | 0.59 | 24.3
CCCCCC(=O)NC(CC(=O)NCC(C)(C)CNC(=O)C(OC(=O)CCCCC)C(COCc1ccccc1)NC(=O)CCCCC)Cc1cc(F)ccc1F (stereo not drawn) [Compound C19.014] | – | no in- hibition | no in- hibition | no in- hibition | no in- hibition | 19.8 | ≥ 149 | 2.97 | – | – | – | – | – | –
CCCCCCCCCCCCCC(=O)NC(CC(=O)NCC(C)(C)CNC(=O)C(O)C(COCc1ccccc1)NC(=O)CCCCCCCCCCCCC)Cc1cc(F)ccc1F (stereo not drawn) [Compound C19.011] | – | no in- hibition | no in- hibition | no in- hibition | no in- hibition | 168 | ≥ 155 | ≥ 110 | – | – | – | – | – | –
NC(CCCCNC(=O)c1cccc(NC(=O)C(O)C(N)Cc2ccccc2)c1)C(=O)N1CCSC1 (stereo not drawn) [Compound C21.003] | – | – | – | – | – | 157 | ≥ 200 | 62 | 0.13 | – | – | 0.07 | 0.62 | 0.054
NC(CCCCNC(=O)C(S)C(N)Cc1ccccc1)C(=O)N1CCSC1 (stereo not drawn) [Compound C22.003] | – | – | – | – | – | 30.2 | 75.2 | 38.9 | 3.5 | – | – | 0.032 | 3.79 | 0.34
CC(C)(CNC(=O)CC(N)Cc1cc(F)ccc1F)CNC(=O)C(O)C(COCc1ccccc1)NC(=O)OC(C)(C)C (stereo not drawn) [Compound C19.028] | – | – | no in- hibition | no in- hibition | – | 9 | 49.4 | 31.4 | – | – | – | 0.17 | – | 1.4

— US20120028995A1, “NOVEL COMPOUNDS FOR MEDICAL USE AS PEPTIDASE EFFECTORS” (IMTM GMBH, priority 2010, published 2012)
